From publication PMC5880808, “A lever-like transduction pathway for long-distance chemical- and mechano-gating of the mechanosensitive Piezo1 channel” (Nature Communications, 2018)

How the values were obtained:
[1] = molecular target: T1, mPiezo1 (Mus musculus, UniProt E2JF22); test: Fura-2 single-cell Ca2+ imaging of mPiezo1-mCherry-transfected HEK293T cells; type: cell-based; settings: for Ca2+ response (Fura-2 ratio): mCherry-positive HEK293T cells transfected with mPiezo1-mCherry
T1 construct: The full-length mPiezo1 has 2547 amino acids in each monomer; expressed in transfected cells; host or cells: HEK293T
Description: Fura-2 single-cell Ca^2+ imaging was performed according to the previous protocol. In brief, mCherry-Piezo1 cDNA (1 μg)-transfected HEK293T cells were plated onto 12-mm round glass coverslips, which were coated with poly-D-lysine and placed in 24-well plates, and subject to Fura-2 single-cell Ca^2+ imaging about 36 h post transfection. Cells were washed with buffer containing 1× HBSS (1.3 mM Ca^2+) and 10 mM HEPES (pH 7.2), incubated with 2.5 μM Fura-2 and 0.05% Pluronic F-127 (Life Technologies) for 30 min, then washed again with the previously mentioned buffer. The coverslip was mounted into an inverted Nikon-Tie microscope equipped with a CoolSNAP charge-coupled devise (CCD) camera and Lambda XL light box (Sutter Instrument), and mCherry-positive and -negative cells were selected for measurement of the 340/380 ratio with a ×20 objective (numerical aperture 0.75) using the MetaFluor Fluorescence Ratio Imaging software (Molecular Device).

[2] = molecular target: T1, mPiezo1; test: Inside-out patch recording of single-channel activity, compound in pipette solution; type: cell-based; settings: −80 mV
Source text: For inside-out patch-clamp recordings using an Axopatch 200B amplifier (Axon Instruments), the “extracellular” pipette solution consists of (in mM) the following: 130 NaCl, 5 KCl, 10 HEPES, 1 CaCl2, 1 MgCl2, and 10 TEA-Cl (pH 7.3 with NaOH), and the intracellular “bath” solution contains (in mM) the following: 140 KCl, 10 HEPES, 1 MgCl2, and 10 glucose (pH 7.3 with KOH). All experiments were done at room temperature. Currents were sampled at 20 kHz using Clampex 10.4 software (Axon Instruments) and filtered at 2 kHz. Additional offline filtering of 1 kHz was applied to the recordings for display. Single-channel activity in the presence or absence of Jedi or Yoda1 was continuously recorded for 5 min at −80 mV. The single-channel open probability (NPo) and unitary conductance of mPiezo1 were analyzed using the pClamp software built-in features. Current amplitudes of individual cells recorded at −80 mV were calculated from Gaussian fits to the current amplitude histograms.

[3] = molecular target: T1, mPiezo1; test: Whole-cell poking-induced currents; type: cell-based; settings: for effect on poking currents and inactivation: compound applied to the intracellular side; for increase of poking-induced whole-cell currents: mPiezo1-mRuby2-expressing cells, puffing application of 1 mM Jedi, −80 mV
Description: Protocols for HEK293T cell culture, transient transfection, and patch-clamp experiments with an Axopatch 200B amplifier (Axon Instruments) or HEKA EPC10 were essentially similar to how previously described[6],[8]. […] The extracellular solution was composed of (in mM) 133 NaCl, 3 KCl, 2.5 CaCl2, 1 MgCl2, 10 HEPES (pH 7.3 with NaOH), and 10 glucose. All experiments were carried out at room temperature. Currents were sampled at 20 kHz, filtered at 2 kHz using the Clampex 10.4 software (Axon Instruments) or Patchmaster software. Leak currents before mechanical stimulations were subtracted offline from the current traces.
Mechanical stimulation was delivered to the cell during the patch-clamp recording at an angle of 80° using a fire-polished glass pipette (tip diameter 3–4 μm) as previously described[5],[6]. Downward movement of the probe toward the cell was driven by a Clampex-controlled piezo-electric crystal micro-stage (E625 LVPZT Controller/Amplifier; Physik Instrument). […] The poking distance shown in Fig. 3 includes the initial distance between the poking pipette and the cell, which cannot be accurately controlled, and the applied poking distance controlled by the Clampex-controlled piezo-electric crystal micro-stage. Thus, the actual poking distance on the cell membrane should be equal to the applied poking distance minus the initial distance between the poking pipette and the cell under recording. In the step-wise poking experiment, the patch was readily lost when the cell was broken at the end of the poking.
Stock solutions of Jedi1 (100 mM), Jedi2 (100 mM), and Yoda1 (30 mM) were solubilized in DMSO and diluted to the desired final concentrations as indicated in the figure legends using external or internal solutions. In Figs. 3a, 5b, and 6e, the compound solutions were puffed onto the cells using a multichannel perfusion system (MPS-2, World Precision Instruments) while continuously recording using a gap-free mode. In other conditions, the compounds were directly added to the recording chamber or pipette solution, and the currents were recorded within 10 min. In Figs. 5b and 6e, we used the Piezo1-KO-HEK cell line in which the endogenous Piezo1 gene is disrupted.

[4] = molecular target: T2, C-terminal extracellular domain (CED; 2214–2457) (Mus musculus, UniProt E2JF22); test: SPR binding to immobilized purified protein; settings: without C12E10 detergent
T2 construct: C-terminal extracellular domain (CED; 2214–2457); made in house
T2 sequence (E2JF22 2214-2457): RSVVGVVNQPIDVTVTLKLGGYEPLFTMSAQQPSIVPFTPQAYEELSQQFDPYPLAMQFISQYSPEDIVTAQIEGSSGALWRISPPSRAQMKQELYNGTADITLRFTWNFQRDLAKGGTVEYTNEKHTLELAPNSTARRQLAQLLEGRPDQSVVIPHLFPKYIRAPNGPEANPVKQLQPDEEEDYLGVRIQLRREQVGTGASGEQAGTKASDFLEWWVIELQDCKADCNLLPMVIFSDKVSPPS
Description: Real-time binding and analysis by SPR were conducted on BIAcore T200 instrument (GE Healthcare) at 25 °C. Proteins were immobilized on a research-grade CM5 sensor chip by amine-coupling methods. During the pH scouting process, 10 mM sodium acetate at various pH including 4.0, 4.5, 5.0, and 5.5 and protein concentrations varying between 10 and 100 μg/ml were screened before immobilization. Except pH 4.5 for mPiezo1-(1–2190), pH 5.0 was used for all other proteins, including mPiezo1, CED, Δ15-16, and Δ19-20. All proteins were diluted to 50 μg/ml in buffer containing 10 mM sodium acetate at the abovementioned pH, 0.026% C12E10 detergent, and 150 mM NaCl, except that the soluble CED proteins, which were diluted in 150 mM NaCl without detergent. During the immobilization process, the CM5 sensor was activated with NHS first, allowing the amine-containing proteins to be coupled to the sensor through NHS. Each CM5 sensor had 4 flow cells, and the flow cells 1 and 3 were often left blank as a reference. Diluted Piezo1 wild-type or mutant proteins (50 μg/ml) in their respective buffers were immobilized on the flow cell 2 or flow cell 4 to the similar level as indicated by the “response bound” parameter.
For data collection, compounds at various concentrations were diluted in a running buffer containing 1× PBS, 0.026% detergent C12E10, and 0.05% Surfactant P20 (GE Healthcare Bio-Sciences AB) and injected over the flow cells with at a 30 μl/min flow rate. The proteins and the compounds were allowed to associate for 180 s and then dissociate for 180 s. Data were analyzed with the BIAcore T200 evaluation software by fitting to a 1:1 affinity-binding model.

[5] = compound applied to the extracellular side

T1 sequence (E2JF22 whole entry): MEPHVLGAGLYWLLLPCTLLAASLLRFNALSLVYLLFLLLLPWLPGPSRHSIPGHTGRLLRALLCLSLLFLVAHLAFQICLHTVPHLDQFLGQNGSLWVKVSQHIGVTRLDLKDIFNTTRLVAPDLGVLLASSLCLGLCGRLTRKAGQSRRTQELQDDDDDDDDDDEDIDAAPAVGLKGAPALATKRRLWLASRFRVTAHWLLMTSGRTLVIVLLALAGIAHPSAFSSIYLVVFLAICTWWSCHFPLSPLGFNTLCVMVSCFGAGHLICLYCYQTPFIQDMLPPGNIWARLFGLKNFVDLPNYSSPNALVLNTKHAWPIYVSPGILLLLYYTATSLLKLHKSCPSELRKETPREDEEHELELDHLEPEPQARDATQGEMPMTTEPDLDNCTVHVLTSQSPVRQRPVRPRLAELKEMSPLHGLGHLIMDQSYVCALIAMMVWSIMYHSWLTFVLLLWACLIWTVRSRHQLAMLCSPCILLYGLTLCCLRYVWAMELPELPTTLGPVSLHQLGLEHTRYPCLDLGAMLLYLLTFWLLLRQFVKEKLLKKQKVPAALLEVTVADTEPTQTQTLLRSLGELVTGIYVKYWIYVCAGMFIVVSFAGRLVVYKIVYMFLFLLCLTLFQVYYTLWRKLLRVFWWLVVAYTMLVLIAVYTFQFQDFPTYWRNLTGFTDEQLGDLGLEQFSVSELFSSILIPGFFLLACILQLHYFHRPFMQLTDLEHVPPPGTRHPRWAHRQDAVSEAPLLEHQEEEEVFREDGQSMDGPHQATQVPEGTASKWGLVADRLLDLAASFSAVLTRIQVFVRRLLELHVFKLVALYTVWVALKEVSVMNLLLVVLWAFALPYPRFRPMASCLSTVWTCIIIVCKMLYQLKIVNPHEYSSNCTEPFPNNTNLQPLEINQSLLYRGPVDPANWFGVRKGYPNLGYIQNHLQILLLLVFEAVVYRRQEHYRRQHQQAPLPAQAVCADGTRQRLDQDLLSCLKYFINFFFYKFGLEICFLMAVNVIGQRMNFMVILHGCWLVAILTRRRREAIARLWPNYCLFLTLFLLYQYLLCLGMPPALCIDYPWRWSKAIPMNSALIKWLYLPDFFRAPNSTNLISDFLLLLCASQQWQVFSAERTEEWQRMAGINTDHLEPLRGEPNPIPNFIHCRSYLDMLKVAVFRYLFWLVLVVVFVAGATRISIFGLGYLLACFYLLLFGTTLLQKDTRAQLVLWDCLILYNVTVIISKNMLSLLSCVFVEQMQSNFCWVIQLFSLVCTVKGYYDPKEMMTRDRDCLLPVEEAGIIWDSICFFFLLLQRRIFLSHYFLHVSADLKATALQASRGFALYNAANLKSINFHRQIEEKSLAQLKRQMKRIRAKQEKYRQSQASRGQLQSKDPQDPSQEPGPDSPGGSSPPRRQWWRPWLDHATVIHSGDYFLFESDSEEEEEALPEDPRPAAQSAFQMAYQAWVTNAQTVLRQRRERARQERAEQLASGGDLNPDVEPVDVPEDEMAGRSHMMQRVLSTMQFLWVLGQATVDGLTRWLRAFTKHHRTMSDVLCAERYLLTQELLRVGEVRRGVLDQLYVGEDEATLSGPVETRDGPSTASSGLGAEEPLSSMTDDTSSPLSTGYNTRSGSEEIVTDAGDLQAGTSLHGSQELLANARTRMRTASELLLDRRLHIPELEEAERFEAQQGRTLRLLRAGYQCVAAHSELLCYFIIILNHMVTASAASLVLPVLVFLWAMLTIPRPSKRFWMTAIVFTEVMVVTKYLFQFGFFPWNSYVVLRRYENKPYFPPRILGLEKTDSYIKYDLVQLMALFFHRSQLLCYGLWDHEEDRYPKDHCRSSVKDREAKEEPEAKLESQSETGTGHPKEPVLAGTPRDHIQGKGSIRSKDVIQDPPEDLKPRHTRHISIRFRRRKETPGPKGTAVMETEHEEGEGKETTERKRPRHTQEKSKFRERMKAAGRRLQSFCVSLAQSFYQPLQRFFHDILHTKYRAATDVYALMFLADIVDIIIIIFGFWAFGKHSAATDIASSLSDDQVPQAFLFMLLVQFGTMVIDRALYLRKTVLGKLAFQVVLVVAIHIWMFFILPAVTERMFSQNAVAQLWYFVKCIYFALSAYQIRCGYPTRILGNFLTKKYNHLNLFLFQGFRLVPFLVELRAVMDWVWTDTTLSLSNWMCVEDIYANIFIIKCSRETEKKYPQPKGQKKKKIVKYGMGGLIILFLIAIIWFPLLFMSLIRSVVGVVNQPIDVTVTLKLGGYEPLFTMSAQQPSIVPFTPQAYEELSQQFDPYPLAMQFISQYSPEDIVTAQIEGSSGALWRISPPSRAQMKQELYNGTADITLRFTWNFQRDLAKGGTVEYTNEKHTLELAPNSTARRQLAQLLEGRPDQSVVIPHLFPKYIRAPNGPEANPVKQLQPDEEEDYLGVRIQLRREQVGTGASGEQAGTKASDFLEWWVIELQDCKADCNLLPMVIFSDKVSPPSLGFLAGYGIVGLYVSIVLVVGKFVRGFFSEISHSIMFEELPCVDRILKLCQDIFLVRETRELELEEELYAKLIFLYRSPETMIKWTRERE

Clc1cccc(Cl)c1CSc1nnc(-c2cnccn2)s1 [Yoda1, reference compound]
time course of the induced Ca2+ response ([1]; Fura-2 single-cell imaging): slow activation, no decay, and poor reversibility
Ca2+ response (Fura-2 ratio) [1]: also responded to Yoda1
fold change of the open probability (NPo) [2]: 14.8 ± 0.6 fold
effect on poking currents and inactivation [3]: remained effective in enhancing the poking currents and slowing the inactivation
binding to purified CED proteins (SPR) [4]: none

Cc1oc(-c2cccs2)cc1C(=O)O [Jedi2]
Ca2+ response (Fura-2 ratio) [1]: caused an increase in Ca^2+
fold change of the open probability (NPo) [2]: significant increase in the opening probability
increase of poking-induced whole-cell currents [3]: 5.4 ± 0.7 folds
binding to purified CED proteins (SPR) [4]: none

Cc1oc(-c2ccccc2)cc1C(=O)O [Jedi1]
Ca2+ response (Fura-2 ratio) [1]: caused an increase in Ca^2+
fold change of the open probability (NPo) [2]: 9.6 ± 2.4 fold
inactivation tau of poking-induced currents [3, 5]: slowed the inactivation tau
poking-induced maximal currents (Imax) [3, 5]: significantly enhanced
effect on poking currents and inactivation [3]: had no effect
increase of poking-induced whole-cell currents [3]: 3.8 ± 0.5 folds
binding to purified CED proteins (SPR) [4]: none
